molecular target: human SGLT1 (Homo sapiens (Human), UniProt P13866); test: SGLT1 inhibitory activity: 14C-AMG uptake into CHO-K1 cell line stably expressing human SGLT1; type: cell-based; details: 14C-AMG uptake, CHO-K1 cells expressing human SGLT1
In short: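 CHO-K1 cells stably expressing human SGLT1 were pre-incubated 20 min in Na(−) buffer (pH 7.4). Test compound in Na(+) buffer with BSA was added with ¹⁴C-AMG (8 kBq) plus unlabelled AMG (2 mM in the added solution) for 1 h at 37 °C.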

Chain of human SGLT1 (P13866 whole entry): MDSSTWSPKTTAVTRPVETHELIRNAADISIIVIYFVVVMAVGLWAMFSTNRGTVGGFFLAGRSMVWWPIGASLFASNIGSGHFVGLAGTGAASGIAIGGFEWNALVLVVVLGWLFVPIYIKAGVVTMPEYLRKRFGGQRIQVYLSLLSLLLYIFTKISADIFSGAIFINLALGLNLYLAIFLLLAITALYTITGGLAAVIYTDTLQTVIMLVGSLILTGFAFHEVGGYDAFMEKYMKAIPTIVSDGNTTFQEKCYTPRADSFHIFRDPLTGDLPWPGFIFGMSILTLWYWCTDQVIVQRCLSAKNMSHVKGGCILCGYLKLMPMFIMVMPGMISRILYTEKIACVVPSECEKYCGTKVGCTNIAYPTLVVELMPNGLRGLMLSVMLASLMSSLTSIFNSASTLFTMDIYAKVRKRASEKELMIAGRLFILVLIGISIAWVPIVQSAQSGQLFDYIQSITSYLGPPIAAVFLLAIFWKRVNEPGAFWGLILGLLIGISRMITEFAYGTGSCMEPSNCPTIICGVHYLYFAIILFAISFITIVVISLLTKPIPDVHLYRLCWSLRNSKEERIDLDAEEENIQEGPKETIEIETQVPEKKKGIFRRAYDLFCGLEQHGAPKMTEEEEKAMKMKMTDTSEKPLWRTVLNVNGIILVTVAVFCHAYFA

`Cc1ccc(-n2nc(NC(=O)[C@H]3CNC(=O)[C@@H]3C)cc2-c2cccc(C(F)(F)F)c2)cc1` [Example 231] and `C[C@H]1C(=O)NC[C@@H]1C(=O)Nc1cc(-c2cccc(OCC(F)(F)F)c2)n(-c2ccccc2)n1` [Example 210] are within 1.5-fold of each other in IC50: 6.7 nM for the first, 5.9 nM for the second.

Compared with `C[C@H]1C(=O)NC[C@@H]1C(=O)Nc1cc(-c2cccc(OCC(F)(F)F)c2)n(-c2cccc(F)c2)n1` [Example 222], `C[C@H]1C(=O)NC[C@@H]1C(=O)Nc1cc(-c2cccc(OCC(F)(F)F)c2)n(-c2ccccc2Cl)n1` [Example 215] is 2.9-fold lower in IC50: 4.1 nM for the first, 1.4 nM for the second.

Going from `CCC(F)(F)c1cccc(-c2cc(NC(=O)[C@H]3CNC(=O)C3)nn2-c2ccccc2Cl)c1` [Example 140] to `CCC(F)(F)c1cccc(-c2cc(NC(=O)[C@H]3CNC(=O)C3)nn2-c2cccc(OC)c2)c1` [Example 164], the IC50 rises from 1.1 nM to 2.6 nM (2.4-fold).

Compared with `CCCc1cccc(-c2cc(NC(=O)[C@H]3CNC(=O)C3)nn2C2CCCCCC2)c1` [Example 68], `CCCc1cccc(-c2cc(NC(=O)[C@@H]3CNC(=O)C3)nn2C2CCCC2)c1` [Example 65] is 6-fold higher in IC50: 6.7 nM for the first, 40 nM for the second. The first is the more potent here.

First: O=C1C[C@H](C(=O)Nc2cc(-c3cccc(Cl)c3)n(-c3ccccc3)n2)CN1 [Example 39]
Second: CC(F)(F)c1cccc(-c2cc(NC(=O)[C@H]3CNC(=O)C3)nn2-c2ccccc2)c1 [Example 161]
The IC50 of the first is 16-fold higher: 350 nM for the first, 22 nM for the second.

First: CC(C)(C)c1cccc(-c2cc(NC(=O)[C@H]3CNC(=O)C3)nn2C2CCCCCC2)c1 [Example 84]
Second: CC(C)(C)c1cccc(-c2cc(NC(=O)[C@H]3CNC(=O)C3)nn2C2CCOCC2)c1 [Example 177]
The IC50 of the first is 7.8-fold lower: 7.2 nM for the first, 56 nM for the second.

`CCC(F)(F)c1cccc(-c2cc(NC(=O)[C@H]3CNC(=O)C3)nn2CCC(C)C)c1` [Example 142] and `CCC(F)(F)c1cccc(-c2cc(NC(=O)[C@H]3CNC(=O)C3)nn2CCC(C)(C)C)c1` [Example 143] are within 1.5-fold of each other in IC50: 9.2 nM for the first, 6.5 nM for the second.

Going from `O=C1C[C@@H](C(=O)Nc2cc(-c3cccc(OC(F)(F)F)c3)n(-c3cccc(Cl)c3)n2)CN1` [Example 106] to `O=C1C[C@@H](C(=O)Nc2cc(-c3cccc(OC(F)(F)F)c3)n(-c3ccc(Cl)cc3)n2)CN1` [Example 105], the IC50 rises from 6.8 nM to 37 nM (5.4-fold). The first is the more potent here.

Compared with `CC(F)(F)c1cccc(-c2cc(NC(=O)[C@H]3CNC(=O)C3)nn2-c2ccc(Cl)cc2)c1` [Example 162], `CCCc1cccc(-c2cc(NC(=O)[C@H]3CNC(=O)C3)nn2-c2ccc(F)cc2)c1` [Example 34] is 2.8-fold lower in IC50: 19 nM for the first, 6.8 nM for the second.

Compared with `CCCc1cccc(-c2cc(NC(=O)C3CNC(=O)C3)nn2-c2ccccc2)c1` (racemic) [Example 11], `CCCc1cccc(-c2cc(NC(=O)[C@@H]3CNC(=O)C3)nn2-c2cccc(F)c2)c1` [Example 104] is 2.1-fold higher in IC50: 4.6 nM for the first, 9.8 nM for the second.

Going from `O=C1C[C@@H](C(=O)Nc2cc(-c3cccc(OC(F)(F)F)c3)n(CCC(F)(F)F)n2)CN1` [Example 190] to `C[C@H]1C(=O)NC[C@@H]1C(=O)Nc1cc(-c2cccc(OC(F)(F)F)c2)n(C2CCOCC2)n1` [Example 188], the IC50 falls from 130 nM to 23 nM (5.7-fold). The second is the more potent here.

Compared with `CC(C)(C)c1cccc(-c2cc(NC(=O)C3CCC(=O)NC3)nn2C2CCOCC2)c1` (single isomer, unassigned) [Example 186], `C[C@H]1C(=O)NC[C@@H]1C(=O)Nc1cc(-c2cccc(C(C)(C)C)c2)n(-c2ccccc2Cl)n1` [Example 194] is 110-fold lower in IC50: 75 nM for the first, 0.7 nM for the second.

`CCCc1cccc(-c2cc(NC(=O)[C@H]3CNC(=O)C3)nn2-c2ccc(C)cc2)c1` [Example 48] and `CCCc1cccc(-c2cc(NC(=O)[C@H]3CNC(=O)C3)nn2-c2cccc(Cl)c2)c1` [Example 95] are within 1.5-fold of each other in IC50: 3.5 nM for the first, 2.4 nM for the second.

Compared with `CCCc1cc(F)cc(-c2cc(NC(=O)[C@@H]3CNC(=O)C3)nn2-c2ccccc2)c1` [Example 75], `COC(C)(C)c1cccc(-c2cc(NC(=O)[C@H]3CNC(=O)C3)nn2-c2ccccc2)c1` [Example 82] is 3.1-fold higher in IC50: 3.9 nM for the first, 12 nM for the second.

same assay, conditions: 14C-AMG uptake, CHO-K1 cells stably expressing human SGLT1

`O=C1C[C@H](C(=O)Nc2cc(-c3cccc(OC(F)(F)F)c3)n(-c3cccc(F)c3)n2)CN1` [Example 467] and `COc1cc(F)cc(-n2nc(NC(=O)[C@@H]3CNC(=O)C3)cc2-c2cccc(OC(F)(F)F)c2)c1` [Example 524] are within 1.5-fold of each other in IC50: 26 nM for the first, 27 nM for the second.

Going from `CCCc1cccc(-c2cc(NC(=O)[C@@H]3CNC(=O)C3)nn2-c2cccc(OCC(F)(F)F)c2)c1` [Example 387] to `CCCOc1cccc(-n2nc(NC(=O)[C@@H]3CNC(=O)C3)cc2-c2cccc(CCC)c2)c1` [Example 380], the IC50 falls from 12.5 nM to 6.75 nM (1.9-fold). The second is the more potent here.

First: Cc1cc(CO[C@H](C)C(F)(F)F)cc(-c2cc(NC(=O)[C@@H]3CNC(=O)C3)nn2-c2ccccc2)c1 [Example 410]
Second: C[C@@H](OCc1cccc(-c2cc(NC(=O)[C@@H]3CNC(=O)C3)nn2-c2cccc(Cl)c2)c1)C(F)(F)F [Example 506]
The IC50 of the first is 4.7-fold higher: 22 nM for the first, 4.7 nM for the second. The second is the more potent here.

Going from `CCCc1cccc(-c2cc(NC(=O)[C@@H]3CNC(=O)N3CCC)nn2-c2ccccc2)c1` [Example 297] to `CCCc1cccc(-c2cc(NC(=O)[C@H]3CNC(=O)N3CCOC)nn2-c2ccccc2)c1` [Example 346], the IC50 falls from 71 nM to 2.7 nM (26-fold). The second is the more potent here.

First: CCC(C)(C)C(=O)c1cccc(-c2cc(NC(=O)[C@@H]3CNC(=O)C3)nn2-c2ccccc2)c1 [Example 470]
Second: CC(C)(C)CCOc1cccc(-c2cc(NC(=O)[C@@H]3CNC(=O)C3)nn2-c2ccccc2)c1 [Example 294]
The IC50 of the first is 3.5-fold lower: 7 nM for the first, 24.5 nM for the second.

`C[C@@H](OCc1cccc(-c2cc(NC(=O)[C@@H]3CNC(=O)C3)nn2-c2ccc(Cl)cc2)c1)C(F)(F)F` [Example 244, (S)-5-oxopyrrolidine-3-carboxylic acid{1-(4-chlorophenyl)-5-[3-((R)-2,2,2-trifluoro-1-methylethoxymethyl)phenyl]-1H-pyrazol-3-yl}amide] and `C[C@@H](OCc1cccc(-c2cc(NC(=O)[C@@H]3CNC(=O)C3)nn2-c2ccc(F)cc2)c1)C(F)(F)F` [Example 238, (S)-5-oxopyrrolidine-3-carboxylic acid{1-(4-fluorophenyl)-5-[3-((R)-2,2,2-trifluoro-1-methylethoxymethyl)phenyl]-1H-pyrazol-3-yl}amide] are within 1.5-fold of each other in IC50: 8 nM for the first, 7.9 nM for the second.

First: COc1cc(-n2nc(NC(=O)[C@@H]3CNC(=O)C3)cc2-c2cccc(OC(F)(F)F)c2)ccc1F [Example 420]
Second: CC(C)Oc1ccc(F)c(-n2nc(NC(=O)[C@@H]3CNC(=O)C3)cc2-c2cccc(OC(F)(F)F)c2)c1 [Example 517]
The IC50 of the first is 12-fold higher: 47 nM for the first, 3.8 nM for the second. The second is the more potent here.

First: COc1cccc(-n2nc(NC(=O)[C@@H]3CNC(=O)C3)cc2-c2cccc(COCC(F)(F)F)c2)c1 [Example 446]
Second: O=C1C[C@H](C(=O)Nc2cc(-c3cccc(COCC(F)(F)F)c3)n(-c3ccc(Cl)cc3)n2)CN1 [Example 508]
The IC50 of the first is 3.6-fold lower: 5.6 nM for the first, 20 nM for the second.

First: CCCc1cccc(-c2cc(NC(=O)C3CNC(=O)C3CC)nn2-c2ccccc2)c1 (single isomer, unassigned) [Example 307]
Second: CCCCc1cccc(-c2cc(NC(=O)[C@H]3CNC(=O)N3)nn2-c2ccccc2)c1 [Example 245, (R)-2-Oxoimidazolidine-4-carboxylic acid[5-(3-butylphenyl)-1-phenyl-1H-pyrazol-3-yl]amide]
The IC50 of the first is 3.2-fold lower: 6 nM for the first, 19 nM for the second.

First: CCCO[C@H](C)c1cccc(-c2cc(NC(=O)[C@@H]3CNC(=O)C3)nn2-c2ccccc2)c1 [Example 395]
Second: CCCOCc1cccc(-c2cc(NC(=O)[C@H]3CNC(=O)C3)nn2-c2ccccc2)c1 [Example 312]
The IC50 of the first is 1.7-fold lower: 13 nM for the first, 22 nM for the second. The first is the more potent here.

First: CCCCOc1cccc(-c2cc(NC(=O)[C@@H]3CNC(=O)C3)nn2-c2ccccc2)c1 [Example 316]
Second: CC(C)(C)COCc1cccc(-c2cc(NC(=O)C3CCC(=O)NC3)nn2-c2ccccc2)c1 (single isomer, unassigned) [Example 333]
The IC50 of the first is 1.9-fold higher: 39 nM for the first, 20 nM for the second.

`CCCc1cccc(-c2cc(NC(=O)[C@@H]3CNC(=O)C3)nn2-c2ccc(CC)cc2)c1` [Example 403] and `CCCc1cccc(-c2cc(NC(=O)[C@@H]3CNC(=O)C3)nn2-c2ccc(F)c(OC)c2)c1` [Example 389] are within 1.5-fold of each other in IC50: 12 nM for the first, 15 nM for the second.

First: O=C(Nc1cc(-c2cccc(COCC(F)(F)F)c2)n(-c2ccccc2)n1)C1CNC(=O)C12CC2 (single isomer, unassigned) [Example 250, 4-oxo-5-azabispiro[2.4]heptane-7-carboxylic acid{1-phenyl-5-[3-(2,2,2-trifluoroethoxymethyl)phenyl]-1H-pyrazol-3-yl}amide]
Second: COC(C)(C)c1cccc(-c2cc(NC(=O)C3CNC(=O)NC3)nn2-c2ccccc2)c1 [Example 271]
The IC50 of the first is 85-fold lower: 3.4 nM for the first, 290 nM for the second. The first is the more potent here.

Going from `CCCc1cccc(-c2cc(NC(=O)[C@@H]3CNC(=O)C3)nn2-c2c(C)cccc2C)c1` [Example 325] to `COCCOc1cccc(-n2nc(NC(=O)[C@@H]3CNC(=O)C3)cc2-c2cccc(CO[C@H](C)C(F)(F)F)c2)c1F` [Example 487], the IC50 falls from 47 nM to 23 nM (2-fold). The second is the more potent here.

same assay, conditions: CHO-K1, at 0.03 uM

Compound `C[C@H]1C(=O)NC[C@@H]1C(=O)Nc1cc(-c2cccc(OC(F)(F)F)c2)n(-c2ccc(F)cc2F)n1` [Example 184] has an inhibition at 0.03 µM of 3%.

same assay, conditions: CHO-K1, at 0.1 uM

Compared with `CCCc1cccc(-c2cc(NC(=O)C3CNC(=O)NC3)nn2-c2ccccc2)c1` [Example 251], `CCCc1cccc(-c2cc(NC(=O)C3CNC(=O)CO3)nn2-c2ccccc2)c1` (stereo not drawn) [Example 275] is higher in inhibition at 0.1 µM: 41% for the first, 48% for the second.

First: CCCc1cccc(-c2cc(NC(=O)[C@@H]3CNC(=O)C3)nn2CCc2ccccc2)c1 [Example 108]
Second: CCCc1cccc(-c2cc(NC(=O)C3CNC(=O)C34CC4)nn2-c2ccccc2)c1 (stereo not drawn) [Example 361]
The inhibition at 0.1 µM of the first is higher: 45% for the first, 33% for the second.

Compared with `CCCc1cccc(-c2cc(NC(=O)C3CNC(=O)C3(C)C)nn2-c2ccccc2)c1` (stereo not drawn) [Example 398], `O=C1C[C@H](C(=O)Nc2cc(-c3cccc(COC4COC4)c3)n(-c3ccccc3)n2)CN1` [Example 542] is higher in inhibition at 0.1 µM: 7% for the first, 18% for the second.

Reference: patent US8846746B2, “Pyrazole compound and pharmaceutical use thereof” (Japan Tobacco Inc., priority 2011, dated 2014)
